Measured values reported in the supplement of paper PMC4862054.

Each compound was assayed on MDA-MB-436 (assay: normalised response (% of control), CellTiter-Glo; higher = more viable cells (100 = DMSO, 0 = benzethonium chloride kill control)). Details: incubation time: 72 h.
Method in brief: (§1)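 A 20 µl suspension of breast cancer cells was seeded into each well of 384-well plates containing compound at 5 concentrations in 10-fold steps over a compound-specific 10,000-fold range. After 72 h incubation, CellTox Green fluorescence (485/520 nm) was read first, and CellTiter-Glo luminescence was read after 10 min at room temperature. Each plate was normalised against 0.1 % DMSO (100) and a positive kill control (0), and each value is the normalised signal at one concentration.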

Point of comparison: `CCCc1cc(C)[nH]c(=O)c1CNC(=O)c1cc(-c2ccnc(N3CCN(C)CC3)c2)cc2c1cnn2C(C)C` [GSK343] (10 nM), normalised response 91.1%. Against it:
- COc1cc(Nc2ncc(F)c(Nc3ccc4c(n3)N(COP(=O)(O)O)C(=O)C(C)(C)O4)n2)cc(OC)c1OC [Fostamatinib] (2.5 nM) — higher, 92.9%
- CC(C)NC[C@@H](C(=O)N1CCN(c2ncnc3c2[C@H](C)C[C@H]3O)CC1)c1ccc(Cl)cc1 [GDC-0068] (1 nM) — higher, 96.9%
- CCCc1cc(C)[nH]c(=O)c1CNC(=O)c1cc(-c2ccnc(N3CCN(C)CC3)c2)cc2c1cnn2C(C)C [GSK343] (1 nM) — higher, 97.3%
- NC(=O)NO [Hydroxyurea] (100 nM) — higher, 96.3%
- COc1cc2c(cc1-c1c(C)noc1C)ncc1[nH]c(=O)n([C@H](C)c3ccccn3)c12 [I-BET151] (1 nM) — higher, 98.5%
- CC(C)n1nc(-c2ccc3oc(N)nc3c2)c2c(N)ncnc21 [INK128] (0.1 nM) — lower, 79.1%
- CC(C)n1nc(-c2ccc3oc(N)nc3c2)c2c(N)ncnc21 [INK128] (1 nM) — higher, 96.5%
- O=NN(CCCl)C(=O)NC1CCCCC1 [Lomustine] (10 nM) — higher, 95.2%
- O=C(O)CC[C@H]1CC[C@@](c2cc(F)ccc2F)(S(=O)(=O)c2ccc(Cl)cc2)CC1 [MK-0752] (1 nM) — higher, 101%
- NC1(c2ccc(-c3nc4ccn5c(=O)[nH]nc5c4cc3-c3ccccc3)cc2)CCC1 [MK-2206] (1 nM) — higher, 104%
- NC(=O)c1cccc2cn(-c3ccc([C@@H]4CCCNC4)cc3)nc12 [MK-4827] (10 nM) — higher, 107%
- N[C@@H](Cc1ccc(N(CCCl)CCCl)cc1)C(=O)O [Melphalan] (1.25 nM) — higher, 109%
- N[C@@H](Cc1ccc(N(CCCl)CCCl)cc1)C(=O)O [Melphalan] (12.5 nM) — higher, 103%
- O=C(c1cc(Cc2n[nH]c(=O)c3ccccc23)ccc1F)N1CCN(C(=O)C2CC2)CC1 [Olaparib] (10 nM) — higher, 91.8%

What follows are compounds tested on HCC1599 in the same assay as above. Details: incubation time: 72 h.
Method in brief: as §1

Point of comparison: `O=C(O)CC[C@H]1CC[C@@](c2cc(F)ccc2F)(S(=O)(=O)c2ccc(Cl)cc2)CC1` [MK-0752] (1 nM), normalised response 97.5%. Against it:
- Cc1c(C(=O)Nc2ccc(N3C[C@@H](C)O[C@@H](C)C3)nc2)cccc1-c1ccc(OC(F)(F)F)cc1 [Erismodegib] (1 nM) — higher, 102%
- Cc1c(C(=O)Nc2ccc(N3C[C@@H](C)O[C@@H](C)C3)nc2)cccc1-c1ccc(OC(F)(F)F)cc1 [Erismodegib] (10 nM) — higher, 104%
- CC(C)C(=O)Nc1ccc([N+](=O)[O-])c(C(F)(F)F)c1 [Flutamide] (10 nM) — higher, 105%
- COc1cc2c(Oc3ccc(NC(=O)C4(C(=O)Nc5ccc(F)cc5)CC4)cc3F)ccnc2cc1OCCCN1CCOCC1 [Foretinib] (1 nM) — lower, 94.3%
- COc1cc(Nc2ncc(F)c(Nc3ccc4c(n3)N(COP(=O)(O)O)C(=O)C(C)(C)O4)n2)cc(OC)c1OC [Fostamatinib] (0.25 nM) — higher, 111%
- COc1cc(Nc2ncc(F)c(Nc3ccc4c(n3)N(COP(=O)(O)O)C(=O)C(C)(C)O4)n2)cc(OC)c1OC [Fostamatinib] (2.5 nM) — lower, 87.7%
- CC(C)NC[C@@H](C(=O)N1CCN(c2ncnc3c2[C@H](C)C[C@H]3O)CC1)c1ccc(Cl)cc1 [GDC-0068] (1 nM) — higher, 100%
- CCCc1cc(C)[nH]c(=O)c1CNC(=O)c1cc(-c2ccnc(N3CCN(C)CC3)c2)cc2c1cnn2C(C)C [GSK343] (1 nM) — lower, 80.2%
- CCCc1cc(C)[nH]c(=O)c1CNC(=O)c1cc(-c2ccnc(N3CCN(C)CC3)c2)cc2c1cnn2C(C)C [GSK343] (10 nM) — higher, 103%
- NC(=O)NO [Hydroxyurea] (100 nM) — lower, 94.1%
- COc1cc2c(cc1-c1c(C)noc1C)ncc1[nH]c(=O)n([C@H](C)c3ccccn3)c12 [I-BET151] (1 nM) — higher, 103%
- CC(C)n1nc(-c2ccc3oc(N)nc3c2)c2c(N)ncnc21 [INK128] (0.1 nM) — lower, 94.7%
- CC(C)n1nc(-c2ccc3oc(N)nc3c2)c2c(N)ncnc21 [INK128] (1 nM) — higher, 100%
- O=NN(CCCl)C(=O)NC1CCCCC1 [Lomustine] (10 nM) — lower, 83.8%
- NC1(c2ccc(-c3nc4ccn5c(=O)[nH]nc5c4cc3-c3ccccc3)cc2)CCC1 [MK-2206] (1 nM) — higher, 105%
- NC(=O)c1cccc2cn(-c3ccc([C@@H]4CCCNC4)cc3)nc12 [MK-4827] (10 nM) — higher, 104%
- N[C@@H](Cc1ccc(N(CCCl)CCCl)cc1)C(=O)O [Melphalan] (1.25 nM) — higher, 116%
- N[C@@H](Cc1ccc(N(CCCl)CCCl)cc1)C(=O)O [Melphalan] (12.5 nM) — higher, 133%
- O=C(c1cc(Cc2n[nH]c(=O)c3ccccc23)ccc1F)N1CCN(C(=O)C2CC2)CC1 [Olaparib] (10 nM) — higher, 113%

These compounds were tested on HCC1143 in the same assay as above. Details: incubation time: 72 h.
Method in brief: as §1

Point of comparison: `COc1cc(Nc2ncc(F)c(Nc3ccc4c(n3)N(COP(=O)(O)O)C(=O)C(C)(C)O4)n2)cc(OC)c1OC` [Fostamatinib] (2.5 nM), normalised response 102%. Against it:
- Cc1c(C(=O)Nc2ccc(N3C[C@@H](C)O[C@@H](C)C3)nc2)cccc1-c1ccc(OC(F)(F)F)cc1 [Erismodegib] (1 nM) — lower, 93.8%
- Cc1c(C(=O)Nc2ccc(N3C[C@@H](C)O[C@@H](C)C3)nc2)cccc1-c1ccc(OC(F)(F)F)cc1 [Erismodegib] (10 nM) — lower, 93.4%
- CC(C)C(=O)Nc1ccc([N+](=O)[O-])c(C(F)(F)F)c1 [Flutamide] (10 nM) — lower, 98.6%
- COc1cc2c(Oc3ccc(NC(=O)C4(C(=O)Nc5ccc(F)cc5)CC4)cc3F)ccnc2cc1OCCCN1CCOCC1 [Foretinib] (1 nM) — the same, 102%
- COc1cc(Nc2ncc(F)c(Nc3ccc4c(n3)N(COP(=O)(O)O)C(=O)C(C)(C)O4)n2)cc(OC)c1OC [Fostamatinib] (0.25 nM) — lower, 100%
- CC(C)NC[C@@H](C(=O)N1CCN(c2ncnc3c2[C@H](C)C[C@H]3O)CC1)c1ccc(Cl)cc1 [GDC-0068] (1 nM) — lower, 97.3%
- CCCc1cc(C)[nH]c(=O)c1CNC(=O)c1cc(-c2ccnc(N3CCN(C)CC3)c2)cc2c1cnn2C(C)C [GSK343] (1 nM) — lower, 87.7%
- CCCc1cc(C)[nH]c(=O)c1CNC(=O)c1cc(-c2ccnc(N3CCN(C)CC3)c2)cc2c1cnn2C(C)C [GSK343] (10 nM) — higher, 104%
- NC(=O)NO [Hydroxyurea] (100 nM) — higher, 104%
- COc1cc2c(cc1-c1c(C)noc1C)ncc1[nH]c(=O)n([C@H](C)c3ccccn3)c12 [I-BET151] (1 nM) — higher, 105%
- CC(C)n1nc(-c2ccc3oc(N)nc3c2)c2c(N)ncnc21 [INK128] (0.1 nM) — lower, 86.4%
